According to article PMC3244823 (2011):

Biological target: Pin1 (murine embryonic fibroblasts) (Mus musculus, UniProt Q9QUR7)
Test: EGCG-Sepharose pull-down from MEF lysates
Type: cell-based

Pin1 (murine embryonic fibroblasts), sequence (Q9QUR7 whole entry): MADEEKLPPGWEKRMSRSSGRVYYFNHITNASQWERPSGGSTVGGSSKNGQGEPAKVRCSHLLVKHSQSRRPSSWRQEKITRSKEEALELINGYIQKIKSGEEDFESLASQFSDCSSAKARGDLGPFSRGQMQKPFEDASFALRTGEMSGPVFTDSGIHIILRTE

Ki: 45 µM
SMILES: O=C(O[C@@H]1Cc2c(O)cc(O)cc2O[C@@H]1c1cc(O)c(O)c(O)c1)c1cc(O)c(O)c(O)c1 [EGCG, epigallocatechin-3-gallate]
